System: HIV-2 strains
Assay: HIV-2 strains, luciferase activity in CEM-NKR-CCR5-Luc cells
Format: cell-based
Description: Virus yields were measured in dose-response experiments by either luciferase activity in human T-cells (CEM-NKR-CCR5-Luc), extracellular reverse transcriptase activity in MT-2 cells (T-tropic viruses), or extracellular p24 antigen in PM1 cells (M-tropic viruses).
Multiple-cycle assays using recombinant viruses or clinical isolates were used to assess MI antiviral activity as described previously ([10]). pNLRepRlucP373S (the P373S change is in the Gag gene and converts an outlier polymorphism in the NL4-3 gene to the prevalent amino acid in the population) plasmids containing SDMs in Gag or gag/pr regions from clinical isolates were transfected into HEK 293T cells, and the supernatant containing recombinant virus was harvested after 4 to 5 days. Virus was used to infect MT-2 cells in the presence of a 3-fold serially diluted compound at a final dimethyl sulfoxide (DMSO) concentration of 1%. The inocula of the reporter viruses were determined based on the luciferase activity detected on day 4 postinfection. […] Virus growth was determined on days 4 to 5 postinfection for reporter variants or days 5 to 11 for the other viruses. The reporter viruses were detected by a luciferase assay according to manufacturer protocols (Brite-Glo luciferase kit [Promega] for CEM-NKR-CCR5-Luc cells and Dual-Luciferase Reporter 1000 assay system [Promega] for the other cells), and luminescence was detected on a Wallac Trilux. The growth of clinical isolates in PBMCs was quantitated by reverse transcriptase activity in a 96-well scintillation proximity assay (SPA). […] Luminescence was detected on a Wallac Trilux programmed for tritium counting with SPA beads in opaque plates. The growth of the reporter-free laboratory M-tropic strains and clinical isolates was monitored by a p24 enzyme-linked immunosorbent assay (ELISA; PerkinElmer Life Sciences, Waltham, MA) performed on culture supernatants.
Maximal percent inhibition values were calculated as MPI = 100 – (mean signals at the 2 highest concentrations of compound/mean signal of 2 no-drug control wells) × 100.

[1] = Human immunodeficiency virus 2, HIV-2 ROD, first value in cell

| Structure (SMILES) | EC50 (Human immunodeficiency virus 2, HIV-2 287) [nM] | EC50 [1] [nM] |
| --- | --- | --- |
| C=C(C)[C@@H]1CC[C@]2(NCCN3CCS(=O)(=O)CC3)CC[C@]3(C)[C@H](CC[C@@H]4[C@@]5(C)CC=C(C6=CC[C@@](CF)(C(=O)O)CC6)C(C)(C)[C@@H]5CC[C@]43C)[C@@H]12 [GSK’254] | 1240 | > 3000 |
| C=C(C)[C@@H]1CC[C@]2(NCCN3CCS(=O)(=O)CC3)CC[C@]3(C)[C@H](CC[C@@H]4[C@@]5(C)CC=C(c6ccc(C(=O)O)cc6)C(C)(C)[C@@H]5CC[C@]43C)[C@@H]12 [GSK’795, reference compound] |  | > 3000 |

Reference: publication PMC8765437, “GSK3640254 Is a Novel HIV-1 Maturation Inhibitor with an Optimized Virology Profile” (Antimicrobial Agents and Chemotherapy, 2022)
